Here are results for one compound from US20060194845A1, “Use of ALK 5 inhibitors to modulate or inhibit myostatin activity leading to increased lean tissue accretion in animals” (Schering Corporation, priority 2004, published 2006).

In the assay the test system is rats. The assay is described as follows: Effect of Compound A on lean and fat tissue content in rats (Molecular Resonance Imaging). It is filed as in vivo, rat. Conditions: 10 mg/kg in feed. Here is the method:
Ten animals were treated with Compound A and a second group of ten animals served as a control group. Baseline values, in grams, of lean and fat tissue were assessed using […] Resonance Imaging technology for all animals.

Regarding `NC(=O)c1ccc(-c2nc(-c3ccc4c(c3)OCO4)c(-c3ccccn3)[nH]2)cc1` [Compound A], the “fat content vs control (observation in words)” value is given as “slight trend towards decreased fat content”. Also, where the note is “21 days”, the “Fat (g) Δ (change in grams of tissue from baseline)” value was 50.6 g and the “Lean (g) Δ (change in grams of tissue from baseline)” value turned out to be 93.7 g. Also, the “Fat (g) Δ (change in grams of tissue from baseline)” value (39 days) is listed as 73.6 g. Also, the “increase in lean tissue compared to the control group” value (39 days, 137.8 vs. 115.3, p<0.0036) came to 19.6%. Besides, where the note is “39 days, p<0.0036 vs control, 10 mg/kg”, the “Lean (g) Δ (change in grams of tissue from baseline)” value stood at 137.8 g.
